target: T1, CCR2 (Homo sapiens, UniProt P41597); experiment: MCP-1 Receptor Binding Assay in THP-1 Cells; conditions: 0.5 nM 125I labeled MCP-1, 2 hours at 30° C., read-out: Inhibition of MCP-1 Binding IC50, CCR2 Binding
T1 construct: host or cells: THP-1 (human monocytic cell line), whole cells
Method: Compounds of the invention were subjected to various representative biological tests. […] MCP-1 Receptor Binding Assay in THP-1 Cells
Human monocytic cell line THP-1 cells were obtained from American Type Culture Collection (Manassas, Va., USA). […] The cell density was maintained […].
1 μM cold MCP-1 was used for nonspecific binding.

T1 sequence (P41597 whole entry): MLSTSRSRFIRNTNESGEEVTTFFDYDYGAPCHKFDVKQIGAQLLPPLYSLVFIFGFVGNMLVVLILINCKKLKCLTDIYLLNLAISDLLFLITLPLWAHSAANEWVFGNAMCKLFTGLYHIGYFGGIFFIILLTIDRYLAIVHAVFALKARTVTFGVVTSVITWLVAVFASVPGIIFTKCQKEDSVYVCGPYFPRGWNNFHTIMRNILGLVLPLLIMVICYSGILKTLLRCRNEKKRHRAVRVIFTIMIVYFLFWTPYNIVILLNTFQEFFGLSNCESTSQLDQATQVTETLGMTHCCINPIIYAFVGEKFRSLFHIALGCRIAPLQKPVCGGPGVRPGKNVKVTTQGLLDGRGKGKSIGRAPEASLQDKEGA

SMILES	IC50 [nM]
COc1cccc(C(=O)NCC(=O)NC2CN(C3CCC(O)(c4ccc(OC)nc4)CC3)C2)c1 (centres unmarked) [Example 23, N-({1-[4-Hydroxy-4-(6-methoxy-pyridin-3-yl)-cyclohexyl]-azetidin-3-ylcarbamoyl}-methyl)-3-methoxy-benzamide]	14500
COc1ccc(C2(O)CCC(N3CC(NC(=O)CNC(=O)c4ccc5c(c4)OCO5)C3)CC2)cn1 (centres unmarked) [Example 20, Benzo[1,3]dioxole-5-carboxylic acid ({1-[4-hydroxy-4-(6-methoxy-pyridin-3-yl)-cyclohexyl]-azetidin-3-ylcarbamoyl}-methyl)-amide]	6900
COc1ncc(C2(O)CCC(N3CC(NC(=O)CNC(=O)c4cccc(C(F)(F)F)c4)C3)CC2)s1 (centres unmarked) [Example 52, N-({1-[4-Hydroxy-4-(2-methoxy-thiazol-5-yl)-cyclohexyl]-azetidin-3-ylcarbamoyl}-methyl)-3-trifluoromethyl-benzamide]	73
O=C(CNC(=O)c1cccc(C(F)(F)F)c1)NC1CN(C2CCC(O)(c3nc4ccc(Br)cc4s3)CC2)C1 (single isomer, unassigned) [Example 36a, N-({1-[4-(6-Bromo-benzothiazol-2-yl)-4-hydroxy-cyclohexyl]-azetidin-3-ylcarbamoyl}-methyl)-3-trifluoromethyl-benzamide]	3.8
O=C(CNC(=O)c1cc(C(F)(F)F)ccc1C(F)(F)F)NC1CN(C2CCC(O)(c3nccs3)CC2)C1 (centres unmarked) [Example 68, N-{[1-(4-Hydroxy-4-thiazol-2-yl-cyclohexyl)-azetidin-3-ylcarbamoyl]-methyl}-2,5-bis-trifluoromethyl-benzamide]	500
Cc1ccc(C2(O)CCC(N3CC(NC(=O)CNC(=O)c4cc(C(F)(F)F)ccc4Cl)C3)CC2)cn1 (single isomer, unassigned) [Example 70a, 2-Chloro-N-({1-[4-hydroxy-4-(6-methyl-pyridin-3-yl)-cyclohexyl]-azetidin-3-ylcarbamoyl}-methyl)-5-trifluoromethyl-benzamide]	590
Cc1ncc(C2(O)CCC(N3CC(NC(=O)CNC(=O)c4cccc(C(F)(F)F)c4)C3)CC2)s1 (single isomer, unassigned) [Example 41a, N-({1-[4-Hydroxy-4-(2-methyl-thiazol-5-yl)-cyclohexyl]-azetidin-3-ylcarbamoyl}-methyl)-3-trifluoromethyl-benzamide]	200
Nc1ncc(C2(O)CCC(N3CC(NC(=O)CNC(=O)c4cccc(C(F)(F)F)c4)C3)CC2)s1 (centres unmarked) [Example 49, N-({1-[4-(2-Amino-thiazol-5-yl)-4-hydroxy-cyclohexyl]-azetidin-3-ylcarbamoyl}-methyl)-3-trifluoromethyl-benzamide]	260
COc1ccc(C2(O)CCC(N3CC(NC(=O)CNC(=O)c4ccc(Cl)c(Cl)c4)C3)CC2)cn1 (centres unmarked) [Example 18, 3,4-Dichloro-N-({1-[4-hydroxy-4-(6-methoxy-pyridin-3-yl)-cyclohexyl]-azetidin-3-ylcarbamoyl}-methyl)-benzamide]	120
Cc1ccc(C2(O)CCC(N3CC(NC(=O)CNC(=O)c4cc(F)cc(C(F)(F)F)c4)C3)CC2)cn1 (single isomer, unassigned) [Example 64a, 3-Fluoro-N-({1-[4-hydroxy-4-(6-methyl-pyridin-3-yl)-cyclohexyl]-azetidin-3-ylcarbamoyl}-methyl)-5-trifluoromethyl-benzamide]	37
O=C(CNC(=O)c1cc(C(F)(F)F)cc(C(F)(F)F)c1)NC1CN(C2CCC(O)(c3nccs3)CC2)C1 (single isomer, unassigned) [Example 67a, N-{[1-(4-Hydroxy-4-thiazol-2-yl-cyclohexyl)-azetidin-3-ylcarbamoyl]-methyl}-3,5-bis-trifluoromethyl-benzamide]	370
COc1ccc(C2(O)CCC(N3CC(NC(=O)CNC(=O)c4cccc(C)c4)C3)CC2)cn1 (centres unmarked) [Example 22, N-({1-[4-Hydroxy-4-(6-methoxy-pyridin-3-yl)-cyclohexyl]-azetidin-3-ylcarbamoyl}-methyl)-3-methyl-benzamide]	2300
O=C(CNC(=O)c1cccc(C(F)(F)F)c1)NC1CN(C2CCC(O)(c3ccc(OCc4ccccc4)nc3)CC2)C1 (single isomer, unassigned) [Example 7a, N-({1-[4-(6-Benzyloxy-pyridin-3-yl)-4-hydroxy-cyclohexyl]-azetidin-3-ylcarbamoyl}-methyl)-3-trifluoromethyl-benzamide]	1900
CN(C)Cc1ncc(C2(O)CCC(N3CC(NC(=O)CNC(=O)c4cccc(C(F)(F)F)c4)C3)CC2)s1 (centres unmarked) [Example 56, N-({1-[4-(2-Dimethylaminomethyl-thiazol-5-yl)-4-hydroxy-cyclohexyl]-azetidin-3-ylcarbamoyl}-methyl)-3-trifluoromethyl-benzamide]	310
N#CNc1ncc(C2(O)CCC(N3CC(NC(=O)CNC(=O)c4cccc(C(F)(F)F)c4)C3)CC2)s1 (centres unmarked) [Example 55, N-({1-[4-(2-Cyanoamino-thiazol-5-yl)-4-hydroxy-cyclohexyl]-azetidin-3-ylcarbamoyl}-methyl)-3-trifluoromethyl-benzamide]	1200
COc1ncc(C2(O)CCC(N3CC(NC(=O)CNC(=O)c4cccc(C(F)(F)F)c4)C3)CC2)c(OC)n1 (single isomer, unassigned) [Example 29a, N-({1-[4-(2,4-Dimethoxy-pyrimidin-5-yl)-4-hydroxy-cyclohexyl]-azetidin-3-ylcarbamoyl}-methyl)-3-trifluoromethyl-benzamide]	24000
C#Cc1ncc(C2(O)CCC(N3CC(NC(=O)CNC(=O)c4cccc(C(F)(F)F)c4)C3)CC2)s1 (single isomer, unassigned) [Example 44a, N-({1-[4-(2-Ethynyl-thiazol-5-yl)-4-hydroxy-cyclohexyl]-azetidin-3-ylcarbamoyl}-methyl)-3-trifluoromethyl-benzamide]	340
COc1ccc(C2(O)CCC(N3CC(NC(=O)CNC(=O)c4cccc(C#N)c4)C3)CC2)cn1 (centres unmarked) [Example 21, 3-Cyano-N-({1-[4-hydroxy-4-(6-methoxy-pyridin-3-yl)-cyclohexyl]-azetidin-3-ylcarbamoyl}-methyl)-benzamide]	7500
COc1ccc(C2(O)CCC(N3CC(NC(=O)CNC(=O)c4ccc(C(F)(F)F)cc4)C3)CC2)cn1 (centres unmarked) [Example 16, N-({1-[4-Hydroxy-4-(6-methoxy-pyridin-3-yl)-cyclohexyl]-azetidin-3-ylcarbamoyl}-methyl)-4-trifluoromethyl-benzamide]	6450
CN(C)c1ncc(C2(O)CCC(N3CC(NC(=O)CNC(=O)c4cccc(C(F)(F)F)c4)C3)CC2)s1 (centres unmarked) [Example 50, N-({1-[4-(2-Dimethylamino-thiazol-5-yl)-4-hydroxy-cyclohexyl]-azetidin-3-ylcarbamoyl}-methyl)-3-trifluoromethyl-benzamide]	560
Cn1cc(Br)c(C2(O)CCC(N3CC(NC(=O)CNC(=O)c4cccc(C(F)(F)F)c4)C3)CC2)n1 (single isomer, unassigned) [Example 31a, N-({1-[4-(4-Bromo-1-methyl-1H-pyrazol-3-yl)-4-hydroxy-cyclohexyl]-azetidin-3-ylcarbamoyl}-methyl)-3-trifluoromethyl-benzamide]	440
O=C(CNC(=O)c1cccc(C(F)(F)F)c1)NC1CN(C2CCC(O)(c3cc(Br)cs3)CC2)C1 (centres unmarked) [Example 60, N-({1-[4-(4-Bromo-thiophen-2-yl)-4-hydroxy-cyclohexyl]-azetidin-3-ylcarbamoyl}-methyl)-3-trifluoromethyl-benzamide]	230
COc1ncc(C2(O)CCC(N3CC(NC(=O)CNC(=O)c4cccc(C(F)(F)F)c4)C3)CC2)cn1 (single isomer, unassigned) [Example 28a, N-({1-[4-Hydroxy-4-(2-methoxy-pyrimidin-5-yl)-cyclohexyl]-azetidin-3-ylcarbamoyl}-methyl)-3-trifluoromethyl-benzamide]	1100
O=C(CNC(=O)c1cccc(C(F)(F)F)c1)NC1CN(C2CCC(O)(c3ccc(Br)cn3)CC2)C1 (single isomer, unassigned) [Example 25a, N-({1-[4-(5-Bromo-pyridin-2-yl)-4-hydroxy-cyclohexyl]-azetidin-3-ylcarbamoyl}-methyl)-3-trifluoromethyl-benzamide]	3100
C[Si](C)(C)c1ncc(C2(O)CCC(N3CC(NC(=O)CNC(=O)c4cccc(C(F)(F)F)c4)C3)CC2)s1 (single isomer, unassigned) [Example 39a, N-({1-[4-Hydroxy-4-(2-trimethylsilanyl-thiazol-5-yl)-cyclohexyl]-azetidin-3-ylcarbamoyl}-methyl)-3-trifluoromethyl-benzamide]	13
O=C(CNC(=O)c1cccc(C(F)(F)F)c1)NC1CN(C2CCC(O)(c3cccnc3)CC2)C1 (centres unmarked) [Example 15, N-{[1-(4-Hydroxy-4-pyridin-3-yl-cyclohexyl)-azetidin-3-ylcarbamoyl]-methyl}-3-trifluoromethyl-benzamide]	190
Cc1cc(C2(O)CCC(N3CC(NC(=O)CNC(=O)c4cccc(C(F)(F)F)c4)C3)CC2)sn1 (single isomer, unassigned) [Example 58a, N-({1-[4-Hydroxy-4-(3-methyl-isothiazol-5-yl)-cyclohexyl]-azetidin-3-ylcarbamoyl}-methyl)-3-trifluoromethyl-benzamide]	90
COc1ccc(C2(O)CCC(N3CC(NC(=O)CNC(=O)c4cccc(Cl)c4)C3)CC2)cn1 (centres unmarked) [Example 24, 3-Chloro-N-({1-[4-hydroxy-4-(6-methoxy-pyridin-3-yl)-cyclohexyl]-azetidin-3-ylcarbamoyl}-methyl)-benzamide]	1600
O=C(CNC(=O)c1cccc(C(F)(F)F)c1)NC1CN(C2CCC(O)(c3cnc(N4CCCC4)s3)CC2)C1 (centres unmarked) [Example 51, N-({1-[4-Hydroxy-4-(2-pyrrolidin-1-yl-thiazol-5-yl)-cyclohexyl]-azetidin-3-ylcarbamoyl}-methyl)-3-trifluoromethyl-benzamide]	3300

From US8450304B2, “4-azetidinyl-1-heteroaryl-cyclohexanol antagonists of CCR2” (Janssen Pharmaceutica N.V., priority 2008, dated 2013)
